# Reference: PMC11955521, “A GTP-driven central carbon metabolism in the cellulolytic bacterium Ruminiclostridium cellulolyticum” (Communications Biology, 2025)
# Target: T1, Pyruvate kinase (PK) (Ruminiclostridium cellulolyticum, UniProt B8I6Q5)
# T1 construct: gene Ccel_2569; full-length, C-terminal His tag (pET28a), E. coli BL21(DE3), Ni-NTA and anion exchange
# T1 sequence (B8I6Q5 1-580): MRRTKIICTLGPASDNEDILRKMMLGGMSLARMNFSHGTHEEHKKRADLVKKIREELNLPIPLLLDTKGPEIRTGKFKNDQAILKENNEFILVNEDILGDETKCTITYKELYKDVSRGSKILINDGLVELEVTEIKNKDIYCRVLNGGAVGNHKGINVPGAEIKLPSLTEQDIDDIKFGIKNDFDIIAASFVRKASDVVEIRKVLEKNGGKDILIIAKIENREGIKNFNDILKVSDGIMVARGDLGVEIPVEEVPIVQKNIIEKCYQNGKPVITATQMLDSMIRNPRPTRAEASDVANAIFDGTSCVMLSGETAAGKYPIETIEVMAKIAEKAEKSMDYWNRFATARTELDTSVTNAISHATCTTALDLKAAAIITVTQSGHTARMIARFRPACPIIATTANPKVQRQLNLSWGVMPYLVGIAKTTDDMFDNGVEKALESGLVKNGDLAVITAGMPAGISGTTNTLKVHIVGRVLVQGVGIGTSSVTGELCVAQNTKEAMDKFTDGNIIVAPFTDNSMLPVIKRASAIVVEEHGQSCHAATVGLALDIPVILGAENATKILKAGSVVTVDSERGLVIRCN
# Assay: activation of PK, HPLC-RI of pyruvate
# Format: biochemical
# Conditions: allosteric activator only with GDP as co-substrate; FBP 0.5, 3, 10 mM; 20 mM MgCl2, 30 mM KCl, pH 7.0, 37 °C
compound,measurement,value
O=P(O)(O)OC[C@H]1OC(O)(COP(=O)(O)O)[C@@H](O)[C@@H]1O (stereo partly shown) [FBP],"activation of PK, HPLC-RI of pyruvate",FBP was found to act as a potent allosteric activator only when GDP is the co-substrate
